# Reference: patent publication US7399638B2, “Prediction method for lipidosis” (Takeda Pharmaceutical Company Limited, priority 2003, dated 2008)
# Where two headings read alike, the source gives them in different places. Marks after values point to notes of the source that are not given here.
# Experiments:
# [1] = test system: Crj: CD(SD)IGS rats; test: Urinary PAG/hippuric acid ratio by 1H NMR in rats
# Description: During the urine pooling, the collecting vessels were kept in an ice-cooled condition. After the urine collection, the urine was centrifuged at 1500×g for 10 minutes, and not less than 1 mL of the supernatant was collected and stored under freezing (below −70° C.) in a microtube in an ultralow-temperature freezer until the measurement. For the negative control group, 24-hour pooled urine was collected under ice cooling; after the urine collection, the urine was stored at −30° C. until the measurement.
# [2] = test system: Crj: CD(SD)IGS rats; conditions: rat, in vivo
# Description: The following 10 kinds of commercially available drugs were examined as the test compounds for a potential of inducing PLsis by histopathological examination and peripheral blood lymphocyte testing.
# The following experiments were performed using the prematurely autopsied animals.
# The high-dose dosing suspension was diluted about 3 fold and 10 fold with dispersant/solvent to prepare intermediate- and low-dose dosing suspensions. […] [For LD50, the Summary Basis of Approval (FDA) for each drug was referenced to.]
# The animals were examined for mortality, general conditions, body weight, food consumption and the like using PM4800 (Mettler) and EB3200D (Shimadzu Corporation).
# [3] = rat urine, 100 mg/kg/day by gavage, 3 days, mean n = 3-4
# [4] = rat urine, 300 mg/kg/day by gavage, 3 days, mean n = 3-4
# [5] = rat 24-hour pooled urine, 1 mg/kg/day by gavage, 4 days, negative control drug, mean n = 2-4
# [6] = rat 24-hour pooled urine, 3 mg/kg/day by gavage, 4 days, negative control drug, mean n = 2-4
# [7] = rat 24-hour pooled urine, 30 mg/kg/day by gavage, 4 days, negative control drug, mean n = 2-4
# [8] = rat 24-hour pooled urine, 100 mg/kg/day by gavage, 4 days, negative control drug, mean n = 2-4
# [9] = rat urine, 1000 mg/kg/day by gavage, 3 days, mean n = 3-4
smiles,measurement,setting,value
"CN(C)CCCN1c2ccccc2CCc2ccccc21 [Imipramine, imipramine]",PAG + hippuric acid/creatinine,[1]; [3],1.21
same,PAG/creatinine (first term of PAG + hippuric acid),[1]; [3],0.34
same,hippuric acid/creatinine (second term of PAG + hippuric acid),[1]; [3],0.87
same,PAG + hippuric acid/creatinine,[1]; [4],0.71*
same,PAG/creatinine (first term of PAG + hippuric acid),[1]; [4],0.40
same,hippuric acid/creatinine (second term of PAG + hippuric acid),[1]; [4],0.31
"O=C(Nc1c(Cl)cncc1Cl)c1ccc(OC(F)F)c(OCC2CC2)c1 [Roflumilast, roflumilast]",Histopathological changes (PLsis): Liver,[2]; 1 mg/kg/day,−
same,Histopathological changes (PLsis): Lung,[2]; 1 mg/kg/day,−
same,Histopathological changes (PLsis): Lymph node,[2]; 1 mg/kg/day,−
same,Histopathological changes (PLsis): Others,[2]; 1 mg/kg/day,−
same,Histopathological changes (PLsis): Spleen,[2]; 1 mg/kg/day,−
same,Histopathological changes (PLsis): Liver,[2]; 3 mg/kg/day,−
same,Histopathological changes (PLsis): Lung,[2]; 3 mg/kg/day,−
same,Histopathological changes (PLsis): Lymph node,[2]; 3 mg/kg/day,−
same,Histopathological changes (PLsis): Others,[2]; 3 mg/kg/day,−
same,Histopathological changes (PLsis): Spleen,[2]; 3 mg/kg/day,−
same,PAG + hippuric acid/creatinine,[1]; [5],1.39
same,PAG/PAG + hippuric acid,[1]; [5],10.79%
same,PAG/creatinine (first term of PAG + hippuric acid),[1]; [5],0.15
same,PAG/hippuric acid,[1]; [5],12.09%
same,hippuric acid/creatinine (second term of PAG + hippuric acid),[1]; [5],1.24
same,PAG + hippuric acid/creatinine,[1]; [6],1.39
same,PAG/PAG + hippuric acid,[1]; [6],15.11%
same,PAG/creatinine (first term of PAG + hippuric acid),[1]; [6],0.21
same,PAG/hippuric acid,[1]; [6],15.41%
same,hippuric acid/creatinine (second term of PAG + hippuric acid),[1]; [6],1.18
"COc1ccc(C2CNC(=O)C2)cc1OC1CCCC1 (stereo not shown) [Rolipram, rolipram]",Histopathological changes (PLsis): Liver,[2]; 30 mg/kg/day,−
same,Histopathological changes (PLsis): Lung,[2]; 30 mg/kg/day,−
same,Histopathological changes (PLsis): Lymph node,[2]; 30 mg/kg/day,−
same,Histopathological changes (PLsis): Others,[2]; 30 mg/kg/day,−
same,Histopathological changes (PLsis): Spleen,[2]; 30 mg/kg/day,−
same,Histopathological changes (PLsis): Liver,[2]; 100 mg/kg/day,−
same,Histopathological changes (PLsis): Lung,[2]; 100 mg/kg/day,−
same,Histopathological changes (PLsis): Lymph node,[2]; 100 mg/kg/day,−
same,Histopathological changes (PLsis): Others,[2]; 100 mg/kg/day,−
same,Histopathological changes (PLsis): Spleen,[2]; 100 mg/kg/day,−
same,PAG + hippuric acid/creatinine,[1]; [7],1.43
same,PAG/PAG + hippuric acid,[1]; [7],17.48%
same,PAG/creatinine (first term of PAG + hippuric acid),[1]; [7],0.25
same,PAG/hippuric acid,[1]; [7],18.22%
same,hippuric acid/creatinine (second term of PAG + hippuric acid),[1]; [7],1.18
same,PAG + hippuric acid/creatinine,[1]; [8],1.02
same,PAG/PAG + hippuric acid,[1]; [8],13.73%
same,PAG/creatinine (first term of PAG + hippuric acid),[1]; [8],0.14
same,PAG/hippuric acid,[1]; [8],16.29%
same,hippuric acid/creatinine (second term of PAG + hippuric acid),[1]; [8],0.88
"CC/C(=C(\c1ccccc1)c1ccc(OCCN(C)C)cc1)c1ccccc1 [Tamoxifen, tamoxifen]",Histopathological changes (PLsis): Liver,[2]; 100 mg/kg/day,−
same,Histopathological changes (PLsis): Lung,[2]; 100 mg/kg/day,+
same,Histopathological changes (PLsis): Lymph node,[2]; 100 mg/kg/day,+
same,Histopathological changes (PLsis): Others,[2]; 100 mg/kg/day,−
same,Histopathological changes (PLsis): Spleen,[2]; 100 mg/kg/day,−
same,Histopathological changes (PLsis): Liver,[2]; 300 mg/kg/day,+
same,Histopathological changes (PLsis): Lung,[2]; 300 mg/kg/day,+
same,Histopathological changes (PLsis): Lymph node,[2]; 300 mg/kg/day,+
same,Histopathological changes (PLsis): Others,[2]; 300 mg/kg/day,−
same,Histopathological changes (PLsis): Spleen,[2]; 300 mg/kg/day,−
same,Histopathological changes (PLsis): Liver,[2]; 1000 mg/kg/day,+
same,Histopathological changes (PLsis): Lung,[2]; 1000 mg/kg/day,+
same,Histopathological changes (PLsis): Lymph node,[2]; 1000 mg/kg/day,+
same,Histopathological changes (PLsis): Others,[2]; 1000 mg/kg/day,−
same,Histopathological changes (PLsis): Spleen,[2]; 1000 mg/kg/day,−
same,PAG + hippuric acid/creatinine,[1]; [3],1.34
same,PAG/creatinine (first term of PAG + hippuric acid),[1]; [3],0.31
same,hippuric acid/creatinine (second term of PAG + hippuric acid),[1]; [3],1.02
same,PAG + hippuric acid/creatinine,[1]; [4],1.16
same,PAG/creatinine (first term of PAG + hippuric acid),[1]; [4],0.63
same,hippuric acid/creatinine (second term of PAG + hippuric acid),[1]; [4],0.53
same,PAG + hippuric acid/creatinine,[1]; [9],1.58
same,PAG/creatinine (first term of PAG + hippuric acid),[1]; [9],0.91
same,hippuric acid/creatinine (second term of PAG + hippuric acid),[1]; [9],0.67
